Results published in patent US6815546B2, “Analogues of camptothecin, their use as medicaments and the pharmaceutical compositions containing them” (Societe de Recherches et d'Applications Scientifiques …, priority 1995, dated 2004).

Biological target: T1, DNA topoisomerase 1 of purified calf thymus (Bos taurus, UniProt F1MN93)
T1 construct: DNA topoisomerase 1 of purified calf thymus (Gibco-BRL, Paisley, United Kingdom); purchased Gibco-BRL, Paisley, United Kingdom; host or cells: calf thymus tissue
T1 sequence (F1MN93 1-767): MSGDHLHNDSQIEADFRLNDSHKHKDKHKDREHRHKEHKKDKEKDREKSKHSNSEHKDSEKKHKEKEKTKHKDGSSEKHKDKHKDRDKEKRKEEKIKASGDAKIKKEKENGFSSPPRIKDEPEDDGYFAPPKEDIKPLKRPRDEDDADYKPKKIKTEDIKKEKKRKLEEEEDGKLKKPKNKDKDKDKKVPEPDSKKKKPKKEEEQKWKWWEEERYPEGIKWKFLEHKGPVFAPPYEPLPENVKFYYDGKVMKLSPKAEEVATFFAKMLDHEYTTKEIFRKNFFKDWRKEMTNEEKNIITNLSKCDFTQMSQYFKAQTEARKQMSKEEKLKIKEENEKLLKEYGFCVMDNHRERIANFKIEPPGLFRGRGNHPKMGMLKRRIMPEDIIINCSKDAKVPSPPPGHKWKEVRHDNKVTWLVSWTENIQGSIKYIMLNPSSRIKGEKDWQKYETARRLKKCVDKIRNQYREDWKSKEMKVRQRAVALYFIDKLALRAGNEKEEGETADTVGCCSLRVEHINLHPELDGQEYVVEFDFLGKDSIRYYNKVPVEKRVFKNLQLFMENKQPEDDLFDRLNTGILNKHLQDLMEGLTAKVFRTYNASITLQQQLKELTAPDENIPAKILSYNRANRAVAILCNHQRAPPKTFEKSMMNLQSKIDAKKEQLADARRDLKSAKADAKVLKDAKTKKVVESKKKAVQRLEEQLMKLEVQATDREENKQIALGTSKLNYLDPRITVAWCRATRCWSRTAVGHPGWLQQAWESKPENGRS
Experiment: Relaxation activity test of DNA induced by topoisomerase 1
Format: biochemical
Details: supercoiled pUC19, 15 minutes at 37° C.
Method: 1. Relaxation Activity Test of DNA Induced by Topoisomerase 1
All the reactions are carried out in a 20 μl reaction buffer constituted by 50 mM of Tris-HCl (pH 7.5), 50 mM of KCl, 0.5 mM of dithiothreitol, 10 mM of MgCl2, 0.1 mM of ethyldiamine tetraacetic acid (EDTA), 30 μg/ml of bovine serum albumin and 300 ng of supercoiled pUC19 (Pharmacia Biotech, Orsay, France) with or without the compounds to be tested at defined concentrations. All the compounds to be tested are initially dissolved in dimethylsulphoxide (DMSO) at 50 mM, the other dilutions being carried out with distilled water. […] The reaction is initiated by the addition of a unit of DNA topoisomerase 1 of purified calf thymus (Gibco-BRL, Paisley, United Kingdom) and is carried out for 15 minutes at 37° C. The reactions are stopped by the addition of 3 μl of a mixture containing 1% dodecyl sodium sulphate at 1%, 20 mM of EDTA and 500 μg/ml of K proteinase (Boehringer Mannheim, Meylan, France). After an additional incubation period of 30 minutes at 37° C., 2 μl of a loading buffer containing 10 mM of Na2HPO4, 0.3% of bromophenol blue et 16% Ficoll are added to samples which are subjected to electrophoresis in agarose gels at 1.2% at 1 V/cm for 20 hours in a buffer containing 36 mM of Tris-HCl at pH 7.8, 30 mM of Na2HPO4, 1 mM of EDTA and 2 μg/ml of chloroquine. The gels are stained with 2 μg/ml of ethidium bromide, photographed under UV light at 312 nm with a camera and the fluorescent intensity is measured with a bioProfil camera (Vilber Lournat, Lyon, France) with a view to determining the percentage of relaxed DNA. Each experiment is carried out at least three times in duplicate.
In each experiment, the supercoiled plasmid DNA is incubated alone or with topoisomerase 1. The reaction is completed within 15 minutes. For each compound to be tested or control, the supercoiled plasmid DNA is incubated in the presence of 500 μM of compound to be tested with enzyme or without enzyme plus the compound to be tested, at concentrations of 10 μM, 100 μM, 200 μM and 500 μM.

Compound | PERCENTAGE OF RELAXED DNA (10 μM compound) | PERCENTAGE OF RELAXED DNA (100 μM compound) | PERCENTAGE OF RELAXED DNA (200 μM compound) | PERCENTAGE OF RELAXED DNA (500 μM compound)
CCC1(O)CC(=O)OCc2c1cc1n(c2=O)Cc2cc3ccccc3nc2-1 (centres unmarked) [Example 3, 5-ethyl-5-hydroxy-1,4,5,13-tetrahydro-3H,15H-oxepino [3′,4′:6,7]indolizino[1,2-b]quinoline-3,15-dione] | 79.9% | 59.9% | 55.0% | 45.7%
CCC(O)(CC(=O)O)c1cc2n(c(=O)c1CO)Cc1cc3ccccc3nc1-2 (centres unmarked) [Example 4, 3-hydroxy-3-[8-(hydroxymethyl)-9-oxo-9,11-dihydroindolizino [1,2-b]quinolin-7-yl]pentanoic acid] | 99.1% | 82.2% | 67.6% | 32.9%
CCc1c2c(nc3ccccc13)-c1cc3c(c(=O)n1C2)COC(=O)CC3(O)CC (centres unmarked) [Example 9, 5,12-diethyl-5-hydroxy-1,4,5,13-tetrahydro-3H,15H-oxepino[3′,4′:6,7]indolizino[1,2-b]quinoline-3,15-dione] | 77.1% | 33.9% | 29.7% | 20.4%
CCc1c2c(nc3ccccc13)-c1cc(C(O)(CC)CC(=O)O)c(CO)c(=O)n1C2 (centres unmarked) [Example 10, 3-[12-ethyl-8-(hydroxymethyl)-9-oxo-9,11-dihydroindolizino[1,2-b]quinolin-7-yl]-3-hydroxypentanoic acid] | 96.9% | 45.4% | 26.2% | 8.7%
CCC1(O)CC(=O)OCc2c1cc1n(c2=O)Cc2cc3cc4c(cc3nc2-1)OCCO4 (centres unmarked) [Example 11, 8-ethyl-8-hydroxy-2,3,8,9,12,15-hexahydro-10H,13H-[1,4]dioxino [2,3-g]oxepino[3′,4′:6,7]indolizino[1,2-b]quinoline-10,13-dione] | 65.0% | 50.3% | 39.8% | 31.0%
